Data published in PMC8291126, “Functional Characterization of Ecdysis Triggering Hormone Receptors (AgETHR-A and AgETHR-B) in the African Malaria Mosquito, Anopheles gambiae” (Frontiers in Physiology, 2021).

Experiments:
AgETHR-A = experiment: Calcium mobilization assay (aequorin luminescence) with heterologously expressed AgETHR-A; assay type: cell-based, Anopheles gambiae; conditions: for agonistic activity normalized by the activity of AgETH1 / response of AgETHR-A (in words) / concentration of maximum response (at the level over) / lowest activating concentration (receptor not activated lower than) / response/sensitivity of AgETHR-A to own ETHs (in words): AgETHR-A; for agonistic activity normalized by the activity of AgETH1: CHO cells, normalized to AgETH1; for response of AgETHR-A (in words): 0.1 and 1 μm; for EC50: AgETHR-A in CHO cells, calcium mobilization, luminescence integrated 20 s, at least three replicates; for concentration of maximum response (at the level over) / lowest activating concentration (receptor not activated lower than) / response/sensitivity of AgETHR-A to own ETHs (in words): dose-response
Description: (§1) We tested different synthetic insect neuropeptides with PRXamide, including four groups: ETH, pyrokinin1/DH, pyrokinin2/PBAN, and CAPA. The following synthetic peptides were utilized to investigate selectivity and sensitivity of each AgETHR-A and AgETHR-B; AgETH1 (SESPGFIKLSKSVPRIa, NEOBiolab, United States), AgETH2 (GDLENFFLKQSKSVPRIa, GenScript United States Inc.), TcETH1 (ENYVLKAAKNVPRIa), TcETH2 (FFMKASKSVPRIa), TcPK1-1 (PGANSGGMWFGPRLa, GenScript United States Inc.), TcPK1-2 ([…]a), TcCAPA-1([…]a, PepMicCo. Ltd., Suzhou, China), TcCAPA-2 (RIGKMVSFPRIa); MsPBAN (TRTRYFSPRLa), Pyrokinin2-1 (HVVNFTPRLa, Biomatik, United States), DmETH1 (DDSSPGFFLKITKNVPRLa) and DmETH2 (GENFAIKNLKTIPRIa).
(§2) The functional analysis of the AgETH receptors was performed based on the previous description with modifications ([Park et al., 2003]; [Kim et al., 2014]; [Jiang et al., 2016]). The expression vector pcDNA 3.1 (+) (Invitrogen, Carlsbad, CA, United States), including the open reading frame (ORF) for each AgETHR-A and AgETHR-B, was transiently transfected into the CHO cells with a codon-optimized human apoaequorin-containing plasmid ([Vernon and Printen, 2002]) by using TransIT®-2020 (Mirus, Madison, WI, United States). […] The Kozak sequence for the mammalian Kozak consensus sequence ‘GCCACC’ at the 5' ends of each ORF for each AgETHR-A and AgETHR-B was […], allowing for successful functional expression. After approximately 24–28 h, transfected cells were harvested and prepared for the calcium mobilization assay by incubating in assay media DMEM/F12, including coelenterazine h (final concentration 5 μm; AAT Bioquest, Sunnyvale, CA, United States). Different concentrations of synthetic neuropeptides, including AgETH1, AgETH2, and ETH-related neuropeptides (PRXamides), were prepared in a 96-well plate, upon which the transfected cells (~15,000 cells in 50 μl) were applied. The value of luminescence, the indicator or calcium mobilization, was integrated over time for 20 s and normalized to the treatment of either 0.1 or 1 μm of each AgETH1 and AgETH2 positive control response and negative control background values.

AgETHR-B = experiment: Calcium mobilization assay (aequorin luminescence) with heterologously expressed AgETHR-B; assay type: cell-based, Anopheles gambiae; conditions: for agonistic activity normalized by the activity of AgETH2 / response of AgETHR-B relative to other ETHs (in words) / concentration of maximum response (at the level over) / lowest activating concentration (receptor not activated lower than) / response/sensitivity of AgETHR-B to own ETHs (in words): AgETHR-B; for agonistic activity normalized by the activity of AgETH2: CHO cells, normalized to AgETH2; for response of AgETHR-B relative to other ETHs (in words): 0.1 μm; for EC50: AgETHR-B in CHO cells, calcium mobilization, luminescence integrated 20 s, at least three replicates; for higher sensitivity of AgETHR-B than AgETHR-A: AgETHR-B vs. AgETHR-A, calcium mobilization assay; for concentration of maximum response (at the level over) / lowest activating concentration (receptor not activated lower than) / response/sensitivity of AgETHR-B to own ETHs (in words): dose-response
Description: as §1, §2

TcETHR-B = conditions: out of 70 peptides, ref Jiang et al., 2015; cited from earlier work

Row | Substance | agonistic activity normalized by the activity of AgETH1 (AgETHR-A; 0.1 μM peptide) [%] | agonistic activity normalized by the activity of AgETH1 (AgETHR-A; 1 μM peptide) [%] | response of AgETHR-A (in words) (AgETHR-A) | agonistic activity normalized by the activity of AgETH2 (AgETHR-B; 0.1 μM peptide) [%] | agonistic activity normalized by the activity of AgETH2 (AgETHR-B; 1 μM peptide) [%] | other results
1 | DDSSPGFFLKITKNVPRLa [DmETH1, D. melanogaster ETH] | 138 | 102 | responded | 105 | 98 | 
2 | ENYVLKAAKNVPRIa [TcETH1, T. castaneum ETH] | -11 | 32 | small or no response | 81 | 104 | response of AgETHR-B relative to other ETHs (in words) (AgETHR-B): relatively lower responses; agonist activity (in words) (TcETHR-B): agonist activity
3 | EPKEPKRNKLASVYALTPSLRVa [TcCAPA-1, synthetic insect neuropeptide, CAPA (PepMicCo)] | -22 | -4 |  | 0 | -2 | 
4 | FFMKASKSVPRIa [TcETH2, T. castaneum ETH] | 57 | 86 | responded | 109 | 107 | agonist activity (in words) (TcETHR-B): agonist activity
5 | GDLENFFLKQSKSVPRIa [AgETH2, Anopheles gambiae ecdysis triggering hormone 2, synthetic (GenScript)] | 24 | 69 |  | 100 | 100 | EC50 (AgETHR-A): 703 nM; concentration of maximum response (at the level over) (AgETHR-A): over 100 um; lowest activating concentration (receptor not activated lower than) (AgETHR-A): ≥ 10 nm; response/sensitivity of AgETHR-A to own ETHs (in words) (AgETHR-A): dose-dependent responses; response/sensitivity of AgETHR-A to own ETHs (in words) (AgETHR-A; listed as AgETH-2): sensitive; EC50 (AgETHR-B): 2.2 nM; higher sensitivity of AgETHR-B than AgETHR-A (AgETHR-B): 320 times; concentration of maximum response (at the level over) (AgETHR-B): over 100 nm; lowest activating concentration (receptor not activated lower than) (AgETHR-B): ≥ 0.03 nm; response/sensitivity of AgETHR-B to own ETHs (in words) (AgETHR-B): dose-dependent responses; response/sensitivity of AgETHR-B to own ETHs (in words) (AgETHR-B; listed as AgETH-2): sensitive
6 | GENFAIKNLKTIPRIa [DmETH2, D. melanogaster ETH] | -14 | 2 | small or no response | 83 | 102 | response of AgETHR-B relative to other ETHs (in words) (AgETHR-B): relatively lower responses
7 | HVVNFTPRLa [Pyrokinin2-1, synthetic insect neuropeptide with PRXamide (Biomatik)] | -21 | -4 |  | 1 | -1 | 
8 | PGANSGGMWFGPRLa [TcPK-1-1, synthetic insect neuropeptide with PRXamide (GenScript)] | -18 | -2 |  | 1 | -3 | 
9 | RIGKMVSFPRIa [TcCAPA-2, synthetic insect neuropeptide, CAPA] | -24 | -4 |  | 0 | 2 | 
10 | SESPGFIKLSKSVPRIa [AgETH1, Anopheles gambiae ecdysis triggering hormone 1, synthetic (NEOBiolab)] | 100 | 100 |  | 97 | 98 | EC50 (AgETHR-A): 127 nM; concentration of maximum response (at the level over) (AgETHR-A): over 10 um; lowest activating concentration (receptor not activated lower than) (AgETHR-A): ≥ 3 nm; response/sensitivity of AgETHR-A to own ETHs (in words) (AgETHR-A): dose-dependent responses; response/sensitivity of AgETHR-A to own ETHs (in words) (AgETHR-A; listed as AgETH-1): sensitive; EC50 (AgETHR-B): 4.5 nM; higher sensitivity of AgETHR-B than AgETHR-A (AgETHR-B): 28 times; concentration of maximum response (at the level over) (AgETHR-B): over 100 nm; lowest activating concentration (receptor not activated lower than) (AgETHR-B): ≥ 0.1 nm; response/sensitivity of AgETHR-B to own ETHs (in words) (AgETHR-B): dose-dependent responses; response/sensitivity of AgETHR-B to own ETHs (in words) (AgETHR-B; listed as AgETH-1): sensitive
11 | TPHESSVPNERNDDSKETYFWFGPRLa [TcPK-1-2, synthetic insect neuropeptide with PRXamide] | -13 | -3 |  | 1 | -2 | 
12 | TRTRYFSPRLa [MsPBAN, synthetic insect neuropeptide with PRXamide] | -21 | -3 |  | 0 | -2 | 
